Values quoted from earlier work as cited in patent US20160082141A1, “CHITIN AND ALGINATE COMPOSITE FIBERS” (THE BOARD OF TRUSTEES OF THE UNIVERSITY OF ALABAMA, priority 2013, published 2016).

Details: Dubbs and Gupta 1998

In the case of `Cc1c(C)c2c(c(C)c1O)CC[C@@](C)(CCC[C@H](C)CCC[C@H](C)CCCC(C)C)O2` [Vitamin E, α-tocopherol], the “Solubility in water, mass fraction” value is listed as 20.9×10^−6 g vitamin E/g water and the “Solubility in water, mol fraction” value is listed as 0.87×10^−6 mole vitamin E/mole water.
